Results published in ChEMBL document CHEMBL5233244, “Therapeutic potential of targeting α/β-Hydrolase domain-containing 6 (ABHD6)” (Eur J Med Chem, 2020).

Tests used:
[1] = target: T1, Monoacylglycerol lipase ABHD6 (Mus musculus, UniProt Q8R2Y0); assay: Inhibition of ABHD6 in mouse brain membrane using FP-biotin as substrate incubated for 1 hr by LC-MS based ABPP-MudPIT analysis; assay type: cell membranes
T1 sequence (Q8R2Y0 whole entry): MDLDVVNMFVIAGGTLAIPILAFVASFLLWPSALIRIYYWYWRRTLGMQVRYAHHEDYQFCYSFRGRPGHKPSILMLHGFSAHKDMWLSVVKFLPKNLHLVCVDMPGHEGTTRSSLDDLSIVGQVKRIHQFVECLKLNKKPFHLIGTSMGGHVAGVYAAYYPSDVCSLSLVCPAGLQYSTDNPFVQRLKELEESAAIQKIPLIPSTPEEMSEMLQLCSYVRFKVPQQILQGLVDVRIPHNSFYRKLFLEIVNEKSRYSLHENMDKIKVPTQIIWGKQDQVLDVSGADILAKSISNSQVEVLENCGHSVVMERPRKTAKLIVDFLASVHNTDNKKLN

[2] = target: T1, Monoacylglycerol lipase ABHD6; assay: Inhibition of mouse ABHD6 expressed in COS-7 cells using 2-[3H]AG as substrate incubated for 30 mins by liquid scintillation analysis; assay type: cell-based
[3] = target: T2, Fatty-acid amide hydrolase 1 (Mus musculus, UniProt O08914); assay: Inhibition of mouse FAAH expressed in COS-7 cells using [3H]AEA as substrate incubated for 30 mins by liquid scintillation analysis; assay type: cell-based
T2 sequence (O08914 whole entry): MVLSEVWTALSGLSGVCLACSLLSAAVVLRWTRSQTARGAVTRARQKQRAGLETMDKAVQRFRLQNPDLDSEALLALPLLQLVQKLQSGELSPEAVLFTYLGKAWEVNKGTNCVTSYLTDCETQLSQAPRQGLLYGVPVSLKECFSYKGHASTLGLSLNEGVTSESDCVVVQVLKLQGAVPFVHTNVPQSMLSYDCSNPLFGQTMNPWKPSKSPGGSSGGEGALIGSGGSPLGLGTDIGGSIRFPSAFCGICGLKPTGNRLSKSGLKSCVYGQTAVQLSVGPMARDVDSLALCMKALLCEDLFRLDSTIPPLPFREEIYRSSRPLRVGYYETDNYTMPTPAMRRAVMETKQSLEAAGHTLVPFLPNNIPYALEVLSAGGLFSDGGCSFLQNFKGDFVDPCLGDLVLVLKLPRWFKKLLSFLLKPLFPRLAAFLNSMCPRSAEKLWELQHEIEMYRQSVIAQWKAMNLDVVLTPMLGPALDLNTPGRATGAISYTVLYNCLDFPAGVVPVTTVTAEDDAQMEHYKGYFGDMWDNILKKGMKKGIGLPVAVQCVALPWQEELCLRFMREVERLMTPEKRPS

[4] = target: T3, Monoacylglycerol lipase ABHD6 (Mus musculus) (UniProt Q8R2Y0); assay: Inhibition of ABHD6 in mouse Primary neuron cells using 2-[3H]AG as substrate at 30 uM incubated for 30 mins by liquid scintillation analysis; assay type: cell-based
T3 sequence (whole entry): T1 sequence (Q8R2Y0 whole entry)

[5] = target: T4, Fatty-acid amide hydrolase 1 (Mus musculus) (UniProt O08914); assay: Inhibition of FAAH in mouse Primary neuron cells using [3H]AEA as substrate at 30 uM incubated for 30 mins by liquid scintillation analysis; assay type: cell-based
T4 sequence (whole entry): T2 sequence (O08914 whole entry)

[6] = target: T1, Monoacylglycerol lipase ABHD6; assay: Inhibition of ABHD6 in mouse brain membrane using HT-01 probe as substrate incubated for 30 mins by gel based competitive ABPP assay; assay type: cell membranes
Monoglyceride lipase = target: T5, Monoglyceride lipase (Mus musculus, UniProt O35678); assay: Inhibition of mouse MAGL expressed in COS-7 cells using 2-[3H]AG as substrate incubated for 30 mins by liquid scintillation analysis; assay type: cell-based
T5 sequence (O35678 whole entry): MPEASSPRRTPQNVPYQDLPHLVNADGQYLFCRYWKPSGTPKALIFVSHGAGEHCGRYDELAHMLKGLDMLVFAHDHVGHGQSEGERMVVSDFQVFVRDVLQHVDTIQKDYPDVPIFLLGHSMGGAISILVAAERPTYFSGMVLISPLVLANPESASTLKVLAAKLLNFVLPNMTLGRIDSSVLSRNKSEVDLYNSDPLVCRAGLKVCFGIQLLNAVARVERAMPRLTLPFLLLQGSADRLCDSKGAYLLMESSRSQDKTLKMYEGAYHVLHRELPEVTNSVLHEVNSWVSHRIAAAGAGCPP

[7] = target: T3, Monoacylglycerol lipase ABHD6 (Mus musculus); assay: Inhibition of ABHD6 in mouse brain membrane using FP-biotin as substrate at 10 uM incubated for 1 hr by LC-MS based ABPP-MudPIT analysis; assay type: cell membranes
[8] = target: T6, Monoacylglycerol lipase ABHD6 (Homo sapiens, UniProt Q9BV23); assay: Inhibition of ABHD6 (unknown origin)
T6 sequence (Q9BV23 whole entry): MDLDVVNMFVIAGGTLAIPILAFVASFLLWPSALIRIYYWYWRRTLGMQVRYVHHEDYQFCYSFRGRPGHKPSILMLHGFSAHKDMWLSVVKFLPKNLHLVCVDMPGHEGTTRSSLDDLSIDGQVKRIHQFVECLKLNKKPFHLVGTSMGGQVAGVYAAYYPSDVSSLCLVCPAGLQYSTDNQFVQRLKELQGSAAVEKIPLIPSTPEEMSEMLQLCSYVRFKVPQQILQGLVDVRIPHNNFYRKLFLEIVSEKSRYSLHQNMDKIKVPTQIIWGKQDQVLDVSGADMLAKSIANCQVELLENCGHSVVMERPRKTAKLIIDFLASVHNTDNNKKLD

[9] = target: T6, Monoacylglycerol lipase ABHD6; assay: Inhibition of human recombinant ABHD6

CN(Cc1cccc(-c2ccccc2)c1)C(=O)Oc1ccc(-c2ccc(C(N)=O)cc2)cc1 was tested, and the IC50 [1] was 0.43 µM.
In the case of CCCCCC/C=C\CCCCCCCC(=O)OCC1CO1 (stereo not given), the IC50 [2] is reported as 2.4 µM, the IC50 [3] is reported as 4 µM and the inhibition [4] is reported as 30%. It also gave an inhibition [5] of 60%.
CC(C)(C)OC(=O)N1CCN(C(=O)n2cc(-c3ccc(OC(F)(F)F)cc3)nn2)C(c2ccccc2)C1 (stereo not given) was tested, and the IC50 [6] was 0.02 µM.
CC/C=C\C/C=C\C/C=C\CCCCCCCC(=O)OCC1CO1 (stereo not given) gave an IC50 [2] of 0.8 µM, an IC50 (Monoglyceride lipase) of 270 µM and an IC50 [3] of 0.9 µM.
For CN(Cc1cccc(-c2ccncc2)c1)C(=O)Oc1ccc(-c2ccc(C(N)=O)cc2)cc1, the inhibition [7] was 90%.
COC(=O)[C@]1(C)CC[C@]2(C)CC[C@]3(C)C4=CC=C5C(=CC(=O)C(O)=C5C)[C@]4(C)CC[C@@]3(C)[C@@H]2C1 [PRISTIMERIN] gave an IC50 [8] of 1.3 µM.
For C#CCO[C@@H]1CC[C@H](Cc2ccccc2)N(C(=O)n2ncc(C(O)(c3ccc(F)cc3)c3ccc(F)cc3)n2)C1, the IC50 [9] was 0.0028 µM and the IC50 [6] was 0.126 µM.
CC(C)(C)OC(=O)N1CCN(C(=O)n2cc(-c3ccc(OC(F)(F)F)cc3)nn2)C(Cc2ccccc2)C1 (stereo not given) showed an IC50 [9] of 0.0036 µM and an IC50 [6] of 0.079 µM.
